# From patent publication US10849878B2 (OBSHCHESTVO S OGRANICHENNOY OTVETSTVENNOSTYU “NORMOFARM”, priority 2015, dated 2020)
# Legend:
# rats [1] = conditions: comparison salts; cited from earlier work
# rats [2] = assay: Porsolt helplessness test; type: in vivo, rat
# [3] = in normal settings; cited from earlier work
# [4] = 7 days after the dosing, LiAsc, LiCa 5 mg/kg, phenazepam 0.25 mg
# [5] = 7 days after the drug withdrawal, 5 mg/kg
# [6] = 28 days after the dosing, LiAsc, LiCa 5 mg/kg, phenazepam 0.25 mg
# [7] = 28 days after the drug withdrawal, 5 mg/kg
molecule,measurement,setting,value
[Br-].[Li+] [Lithium bromide],"LD50, mg/kg in rats",rats [1],2200 mg/kg
[F-].[Li+] [Lithium fluoride],"LD50, mg/kg in rats",rats [1],175 mg/kg
O=C([O-])CCC(=O)[O-].[Li+].[Li+] [Lithium succynate],"LD50, mg/kg in rats",rats [1],2416 mg/kg
O=C([O-])c1cccnc1.[Li+] [Lithium nicotinate],"LD50, mg/kg in rats",rats [1],2200 mg/kg
NCCCC(=O)O [GABA lithium],"LD50, mg/kg in rats",rats [1],1800 mg/kg
O=C([O-])[O-].[Li+].[Li+] [Lithium carbonate],Adrenalin,rats [2]; [4],24.9 ± 9.5 µg/L
same,Duration of activity,rats [2]; [4],100.9 ± 64.9 s
same,Duration of immobility,rats [2]; [4],499.1 ± 53.0 s
same,Eosinophils (Dunger method) in mm^3,rats [2]; [4],312.6 ± 68.1 in mm^3
same,Noradrenalin,rats [2]; [4],69.3 ± 35.2 µg/L
same,Number of gastric ulcers,rats [2]; [4],5.9 ± 2.1
same,Adrenalin,rats [2]; [5],29.6 ± 13.6 µg/L
same,Duration of activity,rats [2]; [5],91.8 ± 43.9 s
same,Duration of immobility,rats [2]; [5],507.9 ± 101.4 s
same,Eosinophils (Dunger method) in mm^3,rats [2]; [5],299.3 ± 93.5 in mm^3
same,Noradrenalin,rats [2]; [5],80.6 ± 29.7 µg/L
same,Number of gastric ulcers,rats [2]; [5],9.9 ± 3.7
same,Adrenalin,rats [2]; [6],36.7 ± 9.6 µg/L
same,Duration of activity,rats [2]; [6],90.8 ± 67.3 s
same,Duration of immobility,rats [2]; [6],508.9 ± 107.2 s
same,Eosinophils (Dunger method) in mm^3,rats [2]; [6],301.8 ± 102.3 in mm^3
same,Noradrenalin,rats [2]; [6],76.83 ± 30.2 µg/L
same,Number of gastric ulcers,rats [2]; [6],7.3 ± 2.6
same,Adrenalin,rats [2]; [7],37.1 ± 14.7 µg/L
same,Duration of activity,rats [2]; [7],93.8 ± 32.7 s
same,Duration of immobility,rats [2]; [7],504.4 ± 173.4 s
same,Eosinophils (Dunger method) in mm^3,rats [2]; [7],281.2 ± 83.1 in mm^3
same,Noradrenalin,rats [2]; [7],76.34 ± 18.6 µg/L
same,Number of gastric ulcers,rats [2]; [7],10.0 ± 4.8
O=C([O-])c1ccccc1.[Li+] [Lithium benzoate],"LD50, mg/kg in rats",rats [1],1200 mg/kg
O=C1O[C@H]([C@@H](O)CO)C(O)=C1O [ascorbic acid],plasma concentration,[3],10000 to 20000 ng/mL
O=C1CN=C(c2ccccc2Cl)c2cc(Br)ccc2N1 [phenazepam],Adrenalin,rats [2]; [4],6.8 ± 0.65 µg/L
same,Duration of activity,rats [2]; [4],426.7 ± 76.4 s
same,Duration of immobility,rats [2]; [4],173.3 ± 22.1 s
same,Eosinophils (Dunger method) in mm^3,rats [2]; [4],969.1 ± 42.3 in mm^3
same,Noradrenalin,rats [2]; [4],17.6 ± 1.95 µg/L
same,Number of gastric ulcers,rats [2]; [4],0.4 ± 0.1
same,Adrenalin,rats [2]; [6],6.2 ± 0.57 µg/L
same,Duration of activity,rats [2]; [6],494.8 ± 60.4 s
same,Duration of immobility,rats [2]; [6],105.2 ± 20.1 s
same,Eosinophils (Dunger method) in mm^3,rats [2]; [6],988.1 ± 42.3 in mm^3
same,Noradrenalin,rats [2]; [6],16.2 ± 1.1 µg/L
same,Number of gastric ulcers,rats [2]; [6],0.1 ± 0.2
O=C([O-])CCCO.[Li+] [Lithium oxibutirate],"LD50, mg/kg in rats",rats [1],2200 mg/kg
[Cl-].[Li+] [Lithium chloride],"LD50, mg/kg in rats",rats [1],970 mg/kg
Lithium nitrate trihydrate,"LD50, mg/kg in rats",rats [1],1400 mg/kg
CC(O)C(=O)[O-].[Li+] (stereo not drawn) [Lithium lactate],"LD50, mg/kg in rats",rats [1],2100 mg/kg
[Li+].[O]=[Ta](=[O])[O-] [Lithium metatantalate],"LD50, mg/kg in rats",rats [1],750 mg/kg
